Where two headings read alike, the source gives them in different places.
How the values were obtained:
ABA UFR153 = experiment: MIC, broth microdilution (CLSI), substance alone or ATB combined with compound at 4 or 8 μg/mL; assay type: cell-based, A. baumannii; conditions: substance alone
Method in brief: (§1)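 CLSI broth microdilution in cation-adjusted Mueller-Hinton broth, 5·10^5 CFU/mL log-phase inoculum, 16-20 h at 35 °C in ambient air. Fosfomycin assays supplemented with 25 μg/ml glucose-6-phosphate.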

ABA UFR158 = experiment: as above; assay type: cell-based, A. baumannii; conditions: substance alone
Method in brief: as §1

ABA UFR161 = experiment: as above; assay type: cell-based, A. baumannii; conditions: substance alone
Method in brief: as §1

ABA UFR151 = experiment: as above; assay type: cell-based, A. baumannii; conditions: substance alone
Method in brief: as §1

ABA 19606 = experiment: as above; assay type: cell-based, A. baumannii; conditions: substance alone
Method in brief: as §1

ABA UFR154 = experiment: as above; assay type: cell-based, A. baumannii; conditions: substance alone
Method in brief: as §1

ABA UFR157 = experiment: as above; assay type: cell-based, A. baumannii; conditions: substance alone
Method in brief: as §1

ABA 107292 = experiment: as above; assay type: cell-based, A. baumannii; conditions: substance alone
Method in brief: as §1

ABA UFR160 = experiment: as above; assay type: cell-based, A. baumannii; conditions: substance alone
Method in brief: as §1

ABA UFR155 = experiment: as above; assay type: cell-based, A. baumannii; conditions: substance alone
Method in brief: as §1

ABA UFR159 = experiment: as above; assay type: cell-based, A. baumannii; conditions: substance alone
Method in brief: as §1

KPN UFR68 = experiment: Fractional Inhibitory Concentration Index, checkerboard assay; assay type: cell-based, K. pneumoniae
Method in brief: (§2)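 Two-agent checkerboards of 2-fold dilutions in ca-MHB were inoculated at 5.10^5 CFU/mL and incubated 18 h at 35 °C in air, in duplicate; fosfomycin wells also held 25 μg/ml glucose-6-phosphate. FICI calculated as the sum of combination/alone MIC ratios for each drug.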

PAE 27853 = experiment: MIC, broth microdilution (CLSI), substance alone or ATB combined with compound at 4 or 8 μg/mL; assay type: cell-based, P. aeruginosa; conditions: Pseudomonas aeruginosa, substance alone
Method in brief: as §1

ECL P99 = experiment: Fractional Inhibitory Concentration Index, checkerboard assay; assay type: cell-based, E. cloacae
Method in brief: as §2

PAE UFR90 = experiment: as above; assay type: cell-based, P. aeruginosa
Method in brief: as §2

PAE UFR48 = experiment: as above; assay type: cell-based, P. aeruginosa
Method in brief: as §2

ECO 190317 = experiment: as above; assay type: cell-based, E. coli
Method in brief: as §2

[1] = Acinetobacter baumannii, read-out: MIC

Which MIC (ABA UFR153) does the source give for `O=C(O)C(F)(F)F.O=C1N2C[C@H](c3scnc3[C@H]2c2ncc[nH]2)N1OS(=O)(=O)[O-].[Na+]` (relative stereo) [Example 6, sodium and 2,2,2-trifluoroacetate [trans-7-(1H-imidazol-3-ium--2-yl)-9-oxo-3-thia-5,8,10-triaza-tricyclo[6.2.1.0^2,6]undeca-2(6),4-dien-10-yl]sulfate] here?
The MIC was 16 µg/mL.

And the MIC (ABA UFR158)?
The MIC was 16 µg/mL.

What about the MIC (ABA UFR161) of the same molecule?
The MIC was 32 µg/mL.

What about the MIC (ABA UFR151) of the same molecule?
Its MIC is 32 µg/mL.

What about the MIC (ABA 19606) of the same molecule?
Its MIC is 16 µg/mL.

What about the MIC (ABA UFR154) of the same molecule?
Its MIC is 32 µg/mL.

What about the MIC (ABA UFR157) of the same molecule?
The MIC was 8 µg/mL.

And the MIC (ABA 107292)?
Its MIC is >32 µg/mL.

What about the MIC (ABA UFR160) of the same molecule?
Its MIC is 16 µg/mL.

What about the MIC (ABA UFR155) of the same molecule?
Its MIC is 16 µg/mL.

What about the MIC (ABA UFR159) of the same molecule?
The MIC was >32 µg/mL.

What about the FIC index min (KPN UFR68; compound +ATM) of the same molecule?
Its FIC index min is 1.0.

What about the FIC index min (KPN UFR68; compound +FEP) of the same molecule?
The FIC index min was 1.0.

What about the FIC index min (KPN UFR68; compound +FOS) of the same molecule?
Its FIC index min is 0.28.

What about the FIC index min (KPN UFR68; compound +MEM) of the same molecule?
The FIC index min was 0.50.

And the FIC index min (KPN UFR68; compound +PIP)?
Its FIC index min is ≤0.5.

`NCC[C@H](O)C(=O)N[C@@H]1C[C@H](N)[C@@H](O[C@H]2O[C@H](CN)[C@@H](O)[C@H](O)[C@H]2O)[C@H](O)[C@H]1O[C@H]1O[C@H](CO)[C@@H](O)[C@H](N)[C@H]1O` [AN, Amikacin, reference compound] was tested. Which MIC (PAE 27853) did it give?
Its MIC is 2 µg/mL.

With `NCCON=C1C[C@@H](C(N)=O)N2C[C@@H]1N(OS(=O)(=O)[O-])C2=O.[Na+]` [Example 2, sodium and 2,2,2-trifluoroacetate [(2S,5S)-4-(2-ammonium-ethoxyimino)-2-carbamoyl-7-oxo-1,6-diazabicyclo[3.2.1]octan-6-yl] sulfate] as the molecule, how does the MIC (ABA UFR153; [1]) read?
Its MIC is > 32 µg/mL.

What about the MIC (ABA UFR158; [1]) of the same molecule?
Its MIC is > 32 µg/mL.

What about the MIC (ABA UFR161; [1]) of the same molecule?
Its MIC is > 32 µg/mL.

And the MIC (ABA UFR151; [1])?
Its MIC is > 32 µg/mL.

What about the MIC (ABA 19606; [1]) of the same molecule?
Its MIC is 16 µg/mL.

What about the MIC (ABA UFR154; [1]) of the same molecule?
The MIC was > 32 µg/mL.

What about the MIC (ABA UFR157; [1]) of the same molecule?
The MIC was > 32 µg/mL.

And the MIC (ABA 107292; [1])?
The MIC was > 32 µg/mL.

And the MIC (ABA UFR160; [1])?
Its MIC is > 32 µg/mL.

And the MIC (ABA UFR155; [1])?
The MIC was > 32 µg/mL.

What about the MIC (ABA UFR159; [1]) of the same molecule?
Its MIC is > 32 µg/mL.

What about the FIC index min (ECL P99; compound +ATM) of the same molecule?
Its FIC index min is 0.50.

What about the FIC index min (ECL P99; compound +FEP) of the same molecule?
Its FIC index min is 0.14.

What about the FIC index min (ECL P99; compound +FOS) of the same molecule?
The FIC index min was ≤0.14.

And the FIC index min (ECL P99; compound +MEM)?
Its FIC index min is 0.50.

And the FIC index min (ECL P99; compound +PIP)?
Its FIC index min is 0.14.

What about the FIC index min (KPN UFR68; compound +ATM) of the same molecule?
Its FIC index min is 0.05.

What about the FIC index min (KPN UFR68; compound +FEP) of the same molecule?
Its FIC index min is ≤0.0098.

What about the FIC index min (KPN UFR68; compound +FOS) of the same molecule?
The FIC index min was 0.25.

What about the FIC index min (KPN UFR68; compound +MEM) of the same molecule?
Its FIC index min is 0.03.

And the FIC index min (KPN UFR68; compound +PIP)?
Its FIC index min is 0.09.

And the FIC index min (PAE UFR90; compound +ATM)?
The FIC index min was ≤0.22.

What about the FIC index min (PAE UFR90; compound +FEP) of the same molecule?
The FIC index min was ≤0.28.

And the FIC index min (PAE UFR90; compound +FOS)?
The FIC index min was ≤0.63.

And the FIC index min (PAE UFR90; compound +MEM)?
The FIC index min was ≤0.38.

What about the FIC index min (PAE UFR90; compound +PIP) of the same molecule?
The FIC index min was ≤0.15.

And the FIC index min (PAE UFR48; compound +ATM)?
The FIC index min was 0.09.

And the FIC index min (PAE UFR48; compound +FEP)?
Its FIC index min is 0.63.

What about the FIC index min (PAE UFR48; compound +FOS) of the same molecule?
The FIC index min was 0.50.

What about the FIC index min (PAE UFR48; compound +MEM) of the same molecule?
The FIC index min was 0.8.

And the FIC index min (PAE UFR48; compound +PIP)?
Its FIC index min is 0.31.

And the FIC index min (ECO 190317; compound +ATM)?
Its FIC index min is 0.08.

What about the FIC index min (ECO 190317; compound +FEP) of the same molecule?
The FIC index min was ≤0.06.

And the FIC index min (ECO 190317; compound +FOS)?
The FIC index min was 0.56.

And the FIC index min (ECO 190317; compound +MEM)?
Its FIC index min is 0.50.

And the FIC index min (ECO 190317; compound +PIP)?
The FIC index min was ≤0.25.

What does the source list for `O=C1N2CC(c3ncco3)=C[C@H](C2)N1OS(=O)(=O)[O-].[Na+]` [Example 9, sodium [(5R)-3-(oxazol-2-yl)-7-oxo-1,6-diazabicyclo[3.2.1]oct-3-en-6-yl] sulfate]?
MIC (ABA UFR153; [1]): > 32 µg/mL; MIC (ABA UFR158; [1]): > 32 µg/mL; MIC (ABA UFR161; [1]): > 32 µg/mL; MIC (ABA UFR151; [1]): > 32 µg/mL; MIC (ABA 19606; [1]): > 32 µg/mL; MIC (ABA UFR154; [1]): > 32 µg/mL; MIC (ABA UFR157; [1]): > 32 µg/mL; MIC (ABA 107292; [1]): > 32 µg/mL; MIC (ABA UFR160; [1]): > 32 µg/mL; MIC (ABA UFR155; [1]): > 32 µg/mL; MIC (ABA UFR159; [1]): > 32 µg/mL; FIC index min (ECL P99; compound +ATM): 0.53; FIC index min (ECL P99; compound +FEP): 0.23; FIC index min (ECL P99; compound +FOS): ≤0.19; FIC index min (ECL P99; compound +MEM): 0.88; FIC index min (ECL P99; compound +PIP): 0.20; FIC index min (KPN UFR68; compound +ATM): ≤0.27; FIC index min (KPN UFR68; compound +FEP): ≤0.05; FIC index min (KPN UFR68; compound +FOS): 0.50; FIC index min (KPN UFR68; compound +MEM): 0.15; FIC index min (KPN UFR68; compound +PIP): ≤0.27; FIC index min (PAE UFR90; compound +ATM): ≤0.30; FIC index min (PAE UFR90; compound +FEP): ≤0.27; FIC index min (PAE UFR90; compound +FOS): ≤0.52; FIC index min (PAE UFR90; compound +MEM): ≤0.53; FIC index min (PAE UFR90; compound +PIP): ≤0.23; FIC index min (PAE UFR48; compound +ATM): 0.14; FIC index min (PAE UFR48; compound +FEP): 0.50; FIC index min (PAE UFR48; compound +FOS): 1.0; FIC index min (PAE UFR48; compound +MEM): 0.8; FIC index min (PAE UFR48; compound +PIP): 0.32; FIC index min (ECO 190317; compound +ATM): 0.20; FIC index min (ECO 190317; compound +FEP): ≤0.07; FIC index min (ECO 190317; compound +FOS): 0.69; FIC index min (ECO 190317; compound +MEM): 0.58; FIC index min (ECO 190317; compound +PIP): ≤0.21
